Source: ChEMBL document CHEMBL1139777, “Discovery of a highly potent series of oxazole-based phosphodiesterase 4 inhibitors” (Bioorg Med Chem Lett, 2007)
pIC50: −log10 of the molar value.

Columns and labels:
[1] = target: T1, 3',5'-cyclic-AMP phosphodiesterase 4B (Homo sapiens, UniProt Q07343); test: Inhibition of PDE4B
[2] = target: cAMP and cAMP-inhibited cGMP 3',5'-cyclic phosphodiesterase 10A (Homo sapiens, UniProt Q9Y233); test: Inhibition of PDE10
[3] = target: Dual 3',5'-cyclic-AMP and -GMP phosphodiesterase 11A (Homo sapiens, UniProt Q9HCR9); test: Inhibition of PDE11
Dual 3',5'-cyclic-AMP and -GMP phosphodiesterase 11A, sequence (Q9HCR9 whole entry): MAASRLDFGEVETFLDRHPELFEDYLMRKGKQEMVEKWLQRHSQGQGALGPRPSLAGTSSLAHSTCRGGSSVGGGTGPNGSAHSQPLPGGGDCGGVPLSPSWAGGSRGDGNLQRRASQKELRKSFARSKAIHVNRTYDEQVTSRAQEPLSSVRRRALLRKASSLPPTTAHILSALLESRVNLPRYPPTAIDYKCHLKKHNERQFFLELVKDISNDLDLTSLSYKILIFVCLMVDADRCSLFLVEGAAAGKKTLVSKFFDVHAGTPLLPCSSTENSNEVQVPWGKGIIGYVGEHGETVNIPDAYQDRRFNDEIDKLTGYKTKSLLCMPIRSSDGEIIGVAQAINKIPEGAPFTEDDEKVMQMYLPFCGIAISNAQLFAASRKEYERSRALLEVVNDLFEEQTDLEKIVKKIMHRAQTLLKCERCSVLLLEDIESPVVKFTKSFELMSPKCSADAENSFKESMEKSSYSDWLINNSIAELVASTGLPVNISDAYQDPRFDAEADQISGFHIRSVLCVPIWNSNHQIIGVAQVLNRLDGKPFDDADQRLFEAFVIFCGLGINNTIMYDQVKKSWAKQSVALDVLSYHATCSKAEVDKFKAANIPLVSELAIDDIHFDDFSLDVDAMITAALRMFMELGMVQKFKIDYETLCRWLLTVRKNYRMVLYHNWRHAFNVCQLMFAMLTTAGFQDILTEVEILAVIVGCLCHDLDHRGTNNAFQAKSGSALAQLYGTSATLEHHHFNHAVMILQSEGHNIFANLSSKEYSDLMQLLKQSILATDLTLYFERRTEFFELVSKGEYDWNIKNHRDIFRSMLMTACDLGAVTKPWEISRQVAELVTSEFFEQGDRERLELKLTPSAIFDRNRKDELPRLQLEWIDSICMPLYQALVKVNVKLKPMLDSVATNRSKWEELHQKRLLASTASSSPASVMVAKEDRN

[4] = Cmax in rat at 10 mg/kg, po; format: ADME, organism-based; design: dose 10 mg/kg, route oral; conditions: in vivo
Rattus norvegicus [5] = test: Antiinflammatory activity in po dosed rat lipopolysaccharide-induced pulmonary inflammation model assessed as inhibition of polymorphonuclear cells; format: functional
[6] = target: T1, 3',5'-cyclic-AMP phosphodiesterase 4B; test: Inhibition of PDE4B at 1 uM
Homo sapiens [7] = species on record: Homo sapiens; test: Selectivity for PDE4B over PDE10
Homo sapiens [8] = species on record: Homo sapiens; test: Selectivity for PDE4B over PDE11
Rattus norvegicus [9] = test: Antiinflammatory activity in rat lipopolysaccharide-induced pulmonary inflammation model assessed as inhibition of polymorphonuclear cells at 3 mg/kg, po; format: functional
Cynomolgus monkey = test: AUC in cynomolgus monkey at 30 mg/kg, po; format: ADME, organism-based, Macaca fascicularis, Plasma; design: dose 30 mg/kg, route oral; conditions: in vivo
[10] = Cmax in cynomolgus monkey at 30 mg/kg, po; format: ADME, organism-based, Macaca fascicularis; design: dose 30 mg/kg, route oral; conditions: in vivo
Rattus norvegicus [11] = test: Antiinflammatory activity in rat lipopolysaccharide-induced pulmonary inflammation model assessed as inhibition of polymorphonuclear cells at 1 mg/kg, po; format: functional

T1 sequence (Q07343 whole entry): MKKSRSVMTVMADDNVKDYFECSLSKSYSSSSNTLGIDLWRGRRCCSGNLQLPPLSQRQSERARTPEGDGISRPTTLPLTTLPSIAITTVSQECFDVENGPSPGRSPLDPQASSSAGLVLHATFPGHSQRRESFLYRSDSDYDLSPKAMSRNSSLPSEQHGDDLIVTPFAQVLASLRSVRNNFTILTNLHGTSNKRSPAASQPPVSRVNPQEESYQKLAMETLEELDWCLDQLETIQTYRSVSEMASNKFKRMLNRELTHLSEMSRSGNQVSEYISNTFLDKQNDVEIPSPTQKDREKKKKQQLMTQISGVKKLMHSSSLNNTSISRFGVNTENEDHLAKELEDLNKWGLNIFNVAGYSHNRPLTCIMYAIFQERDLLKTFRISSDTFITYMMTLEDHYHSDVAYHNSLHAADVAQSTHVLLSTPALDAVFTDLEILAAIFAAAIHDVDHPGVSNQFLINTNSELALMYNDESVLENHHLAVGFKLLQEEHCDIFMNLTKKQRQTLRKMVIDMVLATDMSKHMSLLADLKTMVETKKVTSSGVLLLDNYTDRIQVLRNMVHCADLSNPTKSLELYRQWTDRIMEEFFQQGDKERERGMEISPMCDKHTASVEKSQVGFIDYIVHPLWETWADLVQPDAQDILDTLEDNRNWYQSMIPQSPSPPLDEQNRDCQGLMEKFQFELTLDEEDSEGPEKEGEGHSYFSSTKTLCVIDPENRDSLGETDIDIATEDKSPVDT
cAMP and cAMP-inhibited cGMP 3',5'-cyclic phosphodiesterase 10A, sequence (Q9Y233 whole entry): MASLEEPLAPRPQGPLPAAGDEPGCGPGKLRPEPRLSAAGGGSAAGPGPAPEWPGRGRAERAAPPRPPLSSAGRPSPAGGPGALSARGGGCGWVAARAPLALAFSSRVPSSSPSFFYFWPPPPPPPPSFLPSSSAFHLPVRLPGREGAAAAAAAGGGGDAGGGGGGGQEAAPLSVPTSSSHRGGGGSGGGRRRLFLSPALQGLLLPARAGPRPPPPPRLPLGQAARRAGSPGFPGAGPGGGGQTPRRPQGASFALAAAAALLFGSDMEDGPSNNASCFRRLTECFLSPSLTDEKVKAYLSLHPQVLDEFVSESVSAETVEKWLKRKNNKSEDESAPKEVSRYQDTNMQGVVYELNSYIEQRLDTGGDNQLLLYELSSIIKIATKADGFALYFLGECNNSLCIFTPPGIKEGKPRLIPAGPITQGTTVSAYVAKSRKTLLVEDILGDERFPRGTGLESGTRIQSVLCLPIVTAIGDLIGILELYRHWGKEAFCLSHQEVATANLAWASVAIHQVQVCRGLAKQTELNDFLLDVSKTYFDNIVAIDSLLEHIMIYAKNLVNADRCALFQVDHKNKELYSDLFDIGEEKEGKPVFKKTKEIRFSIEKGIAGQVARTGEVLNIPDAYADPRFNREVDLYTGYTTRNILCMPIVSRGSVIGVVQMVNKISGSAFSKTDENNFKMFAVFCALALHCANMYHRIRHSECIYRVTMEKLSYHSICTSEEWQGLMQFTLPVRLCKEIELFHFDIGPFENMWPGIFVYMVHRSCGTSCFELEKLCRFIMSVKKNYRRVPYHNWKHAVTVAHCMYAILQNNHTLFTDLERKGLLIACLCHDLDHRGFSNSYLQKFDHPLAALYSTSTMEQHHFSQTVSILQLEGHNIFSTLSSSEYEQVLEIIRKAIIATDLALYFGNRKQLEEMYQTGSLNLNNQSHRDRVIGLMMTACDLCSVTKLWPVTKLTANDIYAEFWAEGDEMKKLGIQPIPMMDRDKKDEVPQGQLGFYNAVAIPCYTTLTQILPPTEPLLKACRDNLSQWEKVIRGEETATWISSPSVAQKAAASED

| Structure (SMILES) | pIC50 [1] | pIC50 [2] | pIC50 [3] | also measured |
| --- | --- | --- | --- | --- |
| COc1cc(OC)nc(N2CCN(C(=O)c3nc(-c4ccc(OC)c5nc(C(F)(F)F)ccc45)oc3CN)CC2)n1 | 8.66 | 6.12 | 6.01 | Cmax [4]: 230 nM; ED50 (Rattus norvegicus [5]): 2 mg/kg |
| COc1ccc(-c2nc(C(N)=O)c(CN(C)C)o2)c2ccc(C(F)(F)F)nc12 |  |  |  | inhibition [6]: 40% |
| COc1ccc(-c2nc(C=O)c(C)o2)c2ccc(C(F)(F)F)nc12 | 6.51 |  |  |  |
| COc1ccc(-c2nc(C(=O)N3CCC4(CC3)C(=O)NCN4c3ccccc3)c(CN)o2)c2ccc(C(F)(F)F)nc12 | 9.00 | 7.70 | 6.89 | Selectivity ratio (Homo sapiens [7]): 20; Selectivity ratio (Homo sapiens [8]): 130 |
| COc1ccc(-c2nc(C(=O)N3CC[C@@H](NC(=O)OC(C)(C)C)C3)c(CN)o2)c2ccc(C(F)(F)F)nc12 | 8.85 | 6.89 | 6.09 | Cmax [4]: 610 nM; ED50 (Rattus norvegicus [5]): 0.2 mg/kg |
| COc1ccc(-c2nc(C(N)=O)c(C)o2)c2ccc(C(F)(F)F)nc12 | 7.06 |  |  |  |
| COc1ccc(-c2nc(CN)c(C(N)=O)o2)c2ccc(C(F)(F)F)nc12 | 7.12 |  |  |  |
| COc1ccc(-c2nc(C(=O)N3CCN(S(=O)(=O)N(C)C)CC3)c(CN)o2)c2ccc(C(F)(F)F)nc12 | 8.92 | 5.77 | 5.48 | Selectivity ratio (Homo sapiens [7]): 1000; Selectivity ratio (Homo sapiens [8]): 1000 |
| COc1ccc(-c2nc(C(=O)O)c(CN)o2)c2ccc(C(F)(F)F)nc12 | 7.28 |  |  |  |
| COc1ccc(-c2nc(CCl)c(C)o2)c2ccc(C(F)(F)F)nc12 | 6.33 |  |  |  |
| COc1ccc(C(=O)Nc2c(Cl)c[n+]([O-])cc2Cl)c2ccc(C(F)(F)F)nc12 [SCH-351591] | 7.22 | < 5.00 | < 5.00 |  |
| COc1ccc(-c2nc(C(N)=O)c(CNC3CCCC3)o2)c2ccc(C(F)(F)F)nc12 |  |  |  | inhibition [6]: 39% |
| COc1ccc(-c2nc(C(=O)N3CCN(c4ncccn4)CC3)c(CN)o2)c2ccc(C(F)(F)F)nc12 | 7.72 | 6.37 | 5.70 | Cmax [4]: 9500 nM; inhibition in vivo at 3 mg/kg (Rattus norvegicus [9]): 64%; AUC (Cynomolgus monkey): 130 µM·h; Cmax [10]: 13000 nM |
| CCN(CC)Cc1oc(-c2ccc(OC)c3nc(C(F)(F)F)ccc23)nc1C(N)=O |  |  |  | inhibition [6]: 21% |
| COc1ccc(-c2nc(C(=O)N3CCN(C(=O)OC(C)(C)C)CC3)c(CN)o2)c2ccc(C(F)(F)F)nc12 | 8.37 | 5.96 | 6.22 | Cmax [4]: 1400 nM; inhibition in vivo at 3 mg/kg (Rattus norvegicus [9]): 56% |
| COc1ccc(-c2nc(C(N)=O)c(CN3CCCC3)o2)c2ccc(C(F)(F)F)nc12 |  |  |  | inhibition [6]: 31% |
| COc1ccc(-c2nc(CO)c(C)o2)c2ccc(C(F)(F)F)nc12 | 6.33 |  |  |  |

| Structure (SMILES) | pIC50 [1] | pIC50 [2] | pIC50 [3] | also measured |
| --- | --- | --- | --- | --- |
| COc1ccc(-c2nc(CN)c(C)o2)c2ccc(C(F)(F)F)nc12 | 7.10 |  |  |  |
| COc1ccc(-c2nc(C(=O)O)c(C)o2)c2ccc(C(F)(F)F)nc12 | 6.41 |  |  |  |
| CNC(=O)c1nc(-c2ccc(OC)c3nc(C(F)(F)F)ccc23)oc1CN | 6.96 |  |  |  |
| COc1ccc(-c2nc(C)co2)c2ccc(C(F)(F)F)nc12 | 6.46 |  |  |  |
| CCc1coc(-c2ccc(OC)c3nc(C(F)(F)F)ccc23)n1 | 6.17 |  |  |  |
| COc1ccc(C(=O)Nc2c(Cl)cncc2Cl)c2ccc(C(F)(F)F)nc12 | 7.70 | < 5.00 | 5.14 |  |
| COc1ccc(-c2nc(C(=O)N3CCC(O)(c4ccccc4)CC3)c(CN)o2)c2ccc(C(F)(F)F)nc12 | 8.70 | 6.22 | 6.30 | Cmax [4]: 170 nM; ED50 (Rattus norvegicus [5]): 2 mg/kg |
| CO/N=C(\c1ccccn1)C1CCN(C(=O)c2nc(-c3ccc(OC)c4nc(C(F)(F)F)ccc34)oc2CN)CC1 | 8.80 | 6.92 | 5.82 | Cmax [4]: 610 nM; inhibition in vivo at 1 mg/kg (Rattus norvegicus [11]): 45% |
| CCN(CC)C(=O)c1nc(-c2ccc(OC)c3nc(C(F)(F)F)ccc23)oc1CN | 7.21 |  |  |  |
| COc1ccc(-c2nc(C(=O)N3CCN(C(=O)c4ccccn4)CC3)c(CN)o2)c2ccc(C(F)(F)F)nc12 | 9.00 | 5.72 | 5.68 | Selectivity ratio (Homo sapiens [7]): 1000; Selectivity ratio (Homo sapiens [8]): 1000; Cmax [4]: 730 nM; ED50 (Rattus norvegicus [5]): 0.6 mg/kg |
| COc1ccc(-c2nc(C(N)=O)c(CN3CCCCC3)o2)c2ccc(C(F)(F)F)nc12 |  |  |  | inhibition [6]: 27% |
| COc1ccc(-c2nc(C(N)=O)c(CN)o2)c2ccc(C(F)(F)F)nc12 | 7.62 | 5.55 | 5.12 |  |
| COc1ccc(-c2nc(C(=O)N3CCCC3)c(CN)o2)c2ccc(C(F)(F)F)nc12 | 7.77 |  |  |  |
| COc1ccc(-c2nc(C(=O)N3CCC3)c(CN)o2)c2ccc(C(F)(F)F)nc12 | 7.51 |  |  |  |
| CNCc1oc(-c2ccc(OC)c3nc(C(F)(F)F)ccc23)nc1C(N)=O | 6.24 |  |  |  |
| COc1ccc(-c2nc(C(=O)N3CCN(C(=O)c4cc(C)[nH]n4)CC3)c(CN)o2)c2ccc(C(F)(F)F)nc12 | 9.30 | 5.82 | 6.00 | Selectivity ratio (Homo sapiens [7]): 1000; Selectivity ratio (Homo sapiens [8]): 1000 |
| COc1ccc(-c2nc(C(=O)N3CCCCC3)c(CN)o2)c2ccc(C(F)(F)F)nc12 | 7.31 |  |  |  |
